Data: patent US10702521B2, “Methods for treating neisseria gonorrhoeae infection with substituted 1,2-dihydro-2A,5,8A-triazaacenaphthylene-3,8-diones” (priority 2014, dated 2020)
Structures can show the parent of a compound that is named as a salt. Where two headings read alike, the source gives them in different places.

System: Mycobacterium tuberculosis H37Rv
Assay: Mycobacterium tuberculosis H37Rv Inhibition Assay (resazurin MIC)
Assay type: cell-based
[1] = H37Rv strain, six days incubation, resazurin fluorescence after 48 hours, read-out: MIC value
[2] = read-out: MIC value, H37Rv strain, six days incubation, resazurin fluorescence after 48 hours
[3] = 144 h, read-out: MIC value, H37Rv strain, six days incubation, resazurin fluorescence after 48 hours

O=C1CSc2ccc(CNC3CCN(C[C@@H]4Cn5c(=O)ccc6ncc(=O)n4c65)CC3)nc2N1 [Example 29, (2R)-2-[(4-{[(3-Oxo-3,4-dihydro-2H-pyrido[3,2-b][1,4]thiazin-6-yl)methyl]amino}-1-piperidinyl)methyl]-1,2-dihydro-3H,8H-2a,5,8a-triazaacenaphthylene-3,8-dione hydrochloride]
MIC [1]: < 2 µg/mL

O=c1ccc2ccc(=O)n3c2n1C[C@H]3CN1CCC(NCc2cc3c(cn2)OCCS3)CC1 [Example 6A, (1R)-1-({4-[(2,3-Dihydro[1,4]oxathiino[2,3-c]pyridin-7-ylmethyl)amino]-1-piperidinyl}methyl)-1,2-dihydro-4H,9H-imidazo[1,2,3-ij]-1,8-naphthyridine-4,9-dione hydrochloride]
MIC [2]: < 2 µg/mL

O=c1ccc2ccc(CNC3CCN(C[C@@H]4Cn5c(=O)ccc6ccc(=O)n4c65)CC3)cc2o1 [Example 59, (1R)-1-[(4-{[(2-Oxo-2H-chromen-7-yl)methyl]amino}-1-piperidinyl)methyl]-1,2-dihydro-4H,9H-imidazo[1,2,3-ij]-1,8-naphthyridine-4,9-dione]
MIC [1]: < 2 µg/mL

CC1(NCc2cc3c(cn2)OCCS3)CCN(C[C@@H]2Cn3c(=O)ccc4ccc(=O)n2c43)CC1 [Example 23, (1R)-1-({4-[(2,3-Dihydro[1,4]oxathiino[2,3-c]pyridin-7-ylmethyl)amino]-4-methyl-1-piperidinyl}methyl)-1,2-dihydro-4H,9H-imidazo[1,2,3-ij]-1,8-naphthyridine-4,9-dione hydrochloride]
MIC [1]: < 2 µg/mL

O=c1ccc2ccc(=O)n3c2n1C[C@H]3CN1CCC(NCc2nc3cccc(F)c3[nH]2)CC1 [Example 46, (1R)-1-[(4-{[(4-Fluoro-1H-benzimidazol-2-yl)methyl]amino}-1-piperidinyl)methyl]-1,2-dihydro-4H,9H-imidazo[1,2,3-ij]-1,8-naphthyridine-4,9-dione dihydrochloride]
MIC [2]: < 2 µg/mL

O=c1ccc2ccc(=O)n3c2n1C[C@H]3CN1CCC(NCc2cc3c(cn2)OCS3)CC1 [Example 5A, (1R)-1-({4-[([1,3]Oxathiolo[5,4-c]pyridin-6-ylmethyl)amino]-1-piperidinyl}methyl)-1,2-dihydro-4H,9H-imidazo[1,2,3-ij]-1,8-naphthyridine-4,9-dione hydrochloride]
MIC [3]: < 2 µg/mL

Cl.N#Cc1cc(CNC2CCN(C[C@@H]3Cn4c(=O)ccc5ncc(=O)n3c54)CC2)cc2c1OCCO2 [Example 42, 7-{[(1-{[(2R)-3,8-Dioxo-1,2-dihydro-3H,8H-2a,5,8a-triazaacenaphthylen-2-yl]methyl}-4-piperidinyl)amino]methyl}-2,3-dihydro-1,4-benzodioxin-5-carbonitrile hydrochloride]
MIC [1]: < 2 µg/mL

Cl.Cl.O=C1COc2cc(Cl)c(CNC3CCN(C[C@@H]4Cn5c(=O)ccc6ccc(=O)n4c65)CC3)nc2N1 [Example 32, (1R)-1-[(4-{[(7-Chloro-3-oxo-3,4-dihydro-2H-pyrido[3,2-b][1,4]oxazin-6-yl)methyl]amino}-1-piperidinyl)methyl]-1,2-dihydro-4H,9H-imidazo[1,2,3-ij]-1,8-naphthyridine-4,9-dione dihydrochloride]
MIC (144 h, H37Rv strain, six days incubation, resazurin fluorescence after 48 hours, read-out: MIC value): < 2 µg/mL

O=C1CSc2cnc(CNC3CCN(C[C@@H]4Cn5c(=O)ccc6ccc(=O)n4c65)CC3)nc2N1 [Example 34, (1R)-1-[(4-{[(7-Oxo-6,7-dihydro-1H-pyrimido[5,4-b][1,4]thiazin-2-yl)methyl]amino}-1-piperidinyl)methyl]-1,2-dihydro-4H,9H-imidazo[1,2,3-ij]-1,8-naphthyridine-4,9-dione dihydrochloride]
MIC [2]: < 2 µg/mL

O=c1ccc2ncc(=O)n3c2n1C[C@H]3CN1CCC(NCc2ccc3nsnc3c2)CC1 [Example 25, (2R)-2-({4-[(2,1,3-Benzothiadiazol-5-ylmethyl)amino]-1-piperidinyl}methyl)-1,2-dihydro-3H,8H-2a,5,8a-triazaacenaphthylene-3,8-dione hydrochloride]
MIC [3]: ≤ 1 µg/mL
